Among the test systems are PC-3 prostate; MALME-3M melanoma; BT-549 breast; KM12 colon; NCI-H23 lung; HOP-62 NSCLC; MDA-MB-435; U251 CNS; 786-0 renal; UACC-62 melanoma.
Holding throughout (assay): growth of human tumour cells (NCI), 48 h

The record followed here is PubChem BioAssay (NCI).

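Values below derive from 48-hour exposures of cells grown in 96-well plates, with endpoints linearly interpolated between the two concentrations bracketing the appropriate inhibition level. TGI: total growth inhibition.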

For the compound `Cc1ccc(Nc2nc(NS(=O)(=O)c3cc(C)c(Cl)cc3S)n[nH]2)cc1`, the TGI in the test with PC-3 prostate, with MALME-3M melanoma, in the test on BT-549 breast, with KM12 colon, in the test on NCI-H23 lung and in the test with HOP-62 NSCLC was more than 100 µM each time. The TGI in the test on MDA-MB-435, in the test with U251 CNS, in the test with 786-0 renal and in the test with UACC-62 melanoma was more than 100 µM in each case.
As for `Cc1nc2sccn2c1C(=O)OCCOCCOCCOCCOC(=O)c1c(C)nc2sccn12`, the TGI with PC-3 prostate, in the test on MALME-3M melanoma, in the test on BT-549 breast, with KM12 colon, in the test with NCI-H23 lung and in the test on HOP-62 NSCLC was more than 100 µM throughout. Moreover, the TGI in the test with MDA-MB-435, in the test on U251 CNS, in the test with 786-0 renal and with UACC-62 melanoma was more than 100 µM throughout.
In the case of `CC(C)(C)OC(=O)NCCNC(=O)CN(CC(=O)O)C1CCCCC1N(CC(=O)O)CC(=O)O` (stereo not given), the TGI in the test on PC-3 prostate, in the test on MALME-3M melanoma, with BT-549 breast, with KM12 colon, with NCI-H23 lung and in the test with HOP-62 NSCLC was more than 100 µM in each case. The TGI in the test on MDA-MB-435, with U251 CNS, in the test on 786-0 renal and in the test on UACC-62 melanoma was more than 100 µM each time.
Take `Cc1ccc(C2(c3ccc(C)c(O)c3C)CCN(C)CC2)c(C)c1O`: the TGI in the test on PC-3 prostate, in the test with MALME-3M melanoma, with BT-549 breast, with KM12 colon, in the test with NCI-H23 lung and with HOP-62 NSCLC was more than 100 µM in each case. Moreover, the TGI in the test on MDA-MB-435, in the test with U251 CNS, in the test with 786-0 renal and with UACC-62 melanoma was more than 100 µM throughout.
In the case of `CCOC(=O)C1=CN(C(=O)c2ccccc2)CCC1Cc1ccccc1` (stereo not given), the TGI in the test with PC-3 prostate was 78.1 µM; with MALME-3M melanoma, 68 µM; in the test on BT-549 breast, 85.9 µM; in the test with KM12 colon, more than 100 µM; in the test on NCI-H23 lung it was more than 100 µM; in the test with HOP-62 NSCLC, more than 100 µM. The TGI is 51 µM with MDA-MB-435, 51.9 µM with U251 CNS, more than 100 µM in the test on 786-0 renal and 31.4 µM in the test with UACC-62 melanoma.
Regarding `CCOC(=O)/C=C(/C(=O)OCC)n1ccc(=O)[nH]c1=O`, the TGI amounted to 26.8 µM in the test on PC-3 prostate; 4.4 µM with MALME-3M melanoma; 24.9 µM with BT-549 breast; 34.8 µM in the test on KM12 colon; 30.4 µM in the test on NCI-H23 lung; 35.7 µM in the test with HOP-62 NSCLC. For the same compound, the TGI stood at 24.4 µM with MDA-MB-435, 27.3 µM in the test on U251 CNS, 11.3 µM in the test with 786-0 renal and 25.7 µM in the test on UACC-62 melanoma.
With `C/C(NC(=O)c1ccccc1)=C(/C(=O)c1ccccc1)[C@@H]1OC(C)(C)O[C@@H]1[C@H]1COC(C)(C)O1`, the TGI in the test on PC-3 prostate is more than 100 µM; with MALME-3M melanoma, more than 100 µM; in the test on BT-549 breast, 82.4 µM; in the test with KM12 colon, more than 100 µM; in the test with NCI-H23 lung, 93.9 µM; with HOP-62 NSCLC, more than 100 µM. For the same compound, the TGI in the test with MDA-MB-435 was 39.9 µM; in the test on U251 CNS it was more than 100 µM; in the test with 786-0 renal, 39.7 µM; in the test with UACC-62 melanoma, more than 100 µM.
In the case of `S=C1CSc2c(cnc3ccccc23)N1`, the TGI in the test on PC-3 prostate, with MALME-3M melanoma, in the test on BT-549 breast, in the test with KM12 colon, in the test with NCI-H23 lung and in the test with HOP-62 NSCLC was more than 100 µM each time. Further, the TGI in the test with MDA-MB-435, with U251 CNS, in the test with 786-0 renal and with UACC-62 melanoma was more than 100 µM in each case.
With `OCCNc1nc2c(N3CCCC3)nc(N3CCNCC3)nc2nc1NCc1ccccc1`, the TGI came to 30.7 µM in the test with PC-3 prostate; 35.9 µM in the test with MALME-3M melanoma; 30.8 µM in the test on BT-549 breast; 25.5 µM in the test with KM12 colon; 34.2 µM with NCI-H23 lung; 18.1 µM with HOP-62 NSCLC. The TGI with MDA-MB-435 turned out to be 25.1 µM; in the test on U251 CNS, 23.3 µM; in the test on 786-0 renal it was 28 µM; with UACC-62 melanoma it was 31.3 µM.
Regarding `CSc1nc(=O)c(C#N)c(-c2ccccc2)n1C1OC(COC(C)=O)C(OC(C)=O)C(OC(C)=O)C1OC(C)=O` (stereo not given), the TGI with PC-3 prostate, in the test with MALME-3M melanoma, in the test on BT-549 breast, in the test with KM12 colon, in the test on NCI-H23 lung and in the test with HOP-62 NSCLC was more than 100 µM in each case. The TGI with MDA-MB-435, in the test with U251 CNS, in the test with 786-0 renal and with UACC-62 melanoma was more than 100 µM throughout.
As to `O=C(CCC(=O)OCC1OC(O)(CC2OC(CO)C(O)C(O)C2O)C(O)C1O)OCc1ccccc1` (stereo not given), the TGI in the test on PC-3 prostate, in the test on MALME-3M melanoma, with BT-549 breast, in the test with KM12 colon, in the test on NCI-H23 lung and with HOP-62 NSCLC was more than 100 µM each time. For the same compound, the TGI in the test with MDA-MB-435, in the test with U251 CNS, with 786-0 renal and in the test with UACC-62 melanoma was more than 100 µM in each case.
For `O=C1OC(C(O)C(O)C(O)CO)C(O)C1O` (stereo not given), the TGI in the test on PC-3 prostate, with MALME-3M melanoma, in the test on BT-549 breast, in the test on KM12 colon, in the test on NCI-H23 lung and in the test with HOP-62 NSCLC was more than 100 µM throughout. The TGI in the test with MDA-MB-435, in the test on U251 CNS, with 786-0 renal and with UACC-62 melanoma was more than 100 µM in each case.
As for `CCOC(=O)CCC(NC(=O)c1ccc(NCc2ccc3nc(-c4ccccc4)c(Cl)nc3c2)c2ccccc12)C(=O)OCC` (stereo not given), the TGI with PC-3 prostate, with MALME-3M melanoma, in the test on BT-549 breast, with KM12 colon, in the test on NCI-H23 lung and in the test with HOP-62 NSCLC was more than 100 µM in each case. The TGI with MDA-MB-435, in the test on U251 CNS, in the test with 786-0 renal and in the test with UACC-62 melanoma was more than 100 µM in each case.
Regarding `CCOC(=O)C12C(=O)CCN1CCc1ccccc1C2C` (stereo not given), the TGI with PC-3 prostate, in the test on MALME-3M melanoma, in the test with BT-549 breast, in the test with KM12 colon, with NCI-H23 lung and with HOP-62 NSCLC was more than 100 µM each time. In addition, the TGI in the test with MDA-MB-435, in the test with U251 CNS, in the test with 786-0 renal and with UACC-62 melanoma was more than 100 µM throughout.
Take `OC1(c2ccc(Cl)cc2)c2ccccc2C2=NCc3ccccc3CN21` (stereo not given): the TGI with PC-3 prostate worked out at 15.2 µM; with MALME-3M melanoma, 27.1 µM; in the test with BT-549 breast, 44.7 µM; in the test on KM12 colon, 11.6 µM; in the test with NCI-H23 lung, 23.7 µM; in the test on HOP-62 NSCLC it was 21.9 µM. For the same compound, the TGI with MDA-MB-435 turned out to be 22.7 µM; in the test with U251 CNS, 25.1 µM; with 786-0 renal it was 19.4 µM; with UACC-62 melanoma, 26.7 µM.
For the compound `Cc1ccc(CC(=O)Nc2ccc(NC(=O)CNC(=O)/C=C/c3ccc(-c4ccccc4)cc3)cc2C(=O)c2ccccc2)cc1`, the TGI in the test with PC-3 prostate came out at 4.07 µM; with MALME-3M melanoma, 12.3 µM; with BT-549 breast, 24 µM; with KM12 colon it was 14.5 µM; in the test on NCI-H23 lung, 4.71 µM; with HOP-62 NSCLC, 6.95 µM. Further, the TGI with MDA-MB-435 turned out to be 16.1 µM; with U251 CNS, 8.67 µM; with 786-0 renal, 5.48 µM; in the test with UACC-62 melanoma, 30.8 µM.
For `O=c1c(S(=O)(=O)Oc2ccccc2)coc2cc(F)ccc12`, the TGI with PC-3 prostate, with MALME-3M melanoma, with BT-549 breast, in the test with KM12 colon, with NCI-H23 lung and in the test with HOP-62 NSCLC was more than 100 µM throughout. Further, the TGI in the test with MDA-MB-435, in the test with U251 CNS, with 786-0 renal and with UACC-62 melanoma was more than 100 µM each time.
Regarding `C=C1[C@H](OCC(C)C)[C@@H](OC(=O)C(C)CC)[C@@H](O)C(C)(C)/C=C/[C@H](C)C(=O)[C@@]2(O)C[C@H](C)[C@H](O)[C@@H]2[C@H]1OC(=O)C(C)CC` (stereo not given in full), the TGI in the test on PC-3 prostate is more than 14.8 µM; in the test on MALME-3M melanoma, more than 20 µM; with BT-549 breast, more than 20 µM; with KM12 colon, more than 13.6 µM; in the test with NCI-H23 lung it was more than 15.8 µM; with HOP-62 NSCLC it was more than 10.5 µM. The TGI in the test with MDA-MB-435, in the test with U251 CNS, in the test on 786-0 renal and in the test on UACC-62 melanoma was more than 20 µM each time.
On to `c1ccc2nn(C3CCCCO3)nc2c1` (stereo not given), for which the TGI with PC-3 prostate, in the test with MALME-3M melanoma, with BT-549 breast, in the test with KM12 colon, in the test on NCI-H23 lung and in the test with HOP-62 NSCLC was more than 100 µM throughout. The TGI with MDA-MB-435, with U251 CNS, with 786-0 renal and with UACC-62 melanoma was more than 100 µM in each case.
